Experimental data reported in patent US8623844B2, “Fosaprepitant dimeglumine intermediate, neutral fosaprepitant, and amorphous fosaprepitant dimeglumine and processes for their preparations” (priority 2008, dated 2014).

Key:
[1] = cited from earlier work
[2] = Stability studies of amorphous form, series of XRPD spectra (FIG. 7); type: physicochemical; conditions: about 2° C. to about 8° C., relative humidity less than about 60%, about 7 days to about 2 months
Protocol: The diffractogram was obtained using a Powder X-ray Diffractometer (Philips X'Pert Pro, PANalytical®) with a Cu radiation of λ=1.540598Å. The measurements were carried out from 2 degrees to 50 degrees with times per step of 50 seconds.
The stability data, shown as series of XRPD scans, are substantially in accordance with FIG. 7.

Row | SMILES | degradation on storage ([1]; normal ambient temperatures, stored at −20° C. to avoid degradation, J. Med. Chem. 2000, 43, 1234-1241) | stability of amorphous form on exposure ([1]; normal room temperature, as well as about 2° C.-8° C., transforms into crystalline form) | stability of amorphous polymorphic form (XRPD) [2]
1 | CNC[C@H](O)[C@@H](O)[C@H](O)[C@H](O)CO.CNC[C@H](O)[C@@H](O)[C@H](O)[C@H](O)CO.C[C@@H](O[C@H]1OCCN(Cc2nn(P(=O)(O)O)c(=O)[nH]2)[C@H]1c1ccc(F)cc1)c1cc(C(F)(F)F)cc(C(F)(F)F)c1 | degrades at normal ambient temperatures | loses its stability | 
2 | CNC[C@H](O)[C@@H](O)[C@H](O)[C@H](O)CO.CNC[C@H](O)[C@@H](O)[C@H](O)[C@H](O)CO.C[C@@H](O[C@H]1OCCN(Cc2nc(=O)n(P(=O)(O)O)[nH]2)[C@H]1c1ccc(F)cc1)c1cc(C(F)(F)F)cc(C(F)(F)F)c1 [amorphous fosaprepitant dimeglumine, 1-deoxy-1-(methylamino)-D-glucitol[3-[[(2R,3S)-2-[(1R)-1-[3,5-bis(trifluoromethyl)phenyl]-ethoxy]-3-(4-fluorophenyl)-4-morpholinyl]methyl]-2,5-dihydro-5-oxo-1H-1,2,4-triazol-1-yl]phosphonate (2:1) (salt)] |  |  | substantially stable
